According to patent EP0738149B1 (priority 1994, dated 1995):

What was measured:
Male mongolian gerbils = experiment: Global brain ischemia in gerbils (CA1 pyramidal neurons); format: in vivo; conditions: 3 injections, fraction of hippocampi protected from ischemia, 14 days post-ischemia
Summary of the method: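 Global ischemia induced by clamping each artery for 5 min. Compound given ip 2 min after clamp removal, then daily for the next 2 days (3 doses). CA1 pyramidal neurons counted 14 days post-ischemia in H&E-stained anterior hippocampal sections; percent protection is the fraction of hippocampi protected at the stated dose.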

in vivo = conditions: mouse, in vivo, ip
Description: (§1) Neurotoxicity of the claimed agents was also assessed in mice (i.p. administration) by the rotorod ataxia test and/or in rats (p.o. administration) by positional sense test and gait stance test. […] The term quantitating the neurotoxicity is the medial neurological toxic dose (TD50), was determined in the above tests.

mice = experiment: in vivo
Description: as §1

male ICR albino mice = experiment: Hypobaric hypoxia survival time in mice; format: in vivo
Summary of the method: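 Drugs given i.p. 1 h before hypobaric hypoxia at 100 mmHg; time to respiratory arrest recorded, cutoff 15 min. Effect expressed as percent of saline- or vehicle-control survival time. Each dose tested in two groups of 4 mice, controls run before and after.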

[1] = tested on: mechanically dissociated neonatal rat cerebellum; experiment: Reversal of NMDA induced cell death in cultures of neonatal rat cerebellum; format: cell-based; conditions: for SURVIVING CELL IN CULTURE: relative to control (100%); for PERCENT PROTECTION: Cell Survival minus the NMDA effect; for EFFECTIVE PROTECTION: X x 100/70
Summary of the method: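 Cerebellar cells from 6–7-day rat pups on poly-L-lysine at 200/mm^2, grown 3 days (37°C, 5% CO2), then compound with NMDA challenge (1mM, 3 hours); spermine (0.01 micromoles) plus NMDA as positive control, duplicates. Survival by phase contrast and trypan blue after 24 hours; effective protection = percent protection ×100/70.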

hypoxic rat = experiment: Passive avoidance test in hypoxic rat, Experiment 3A; format: in vivo; conditions: Exp 3A, day 13 of drug treatment 0.5mg/kg/Day, Mean ± SEM; for latency of response, 48h after electroshock: maximum 300 seconds
Description: Experiment 3A: Wistar male rats, 15-19 month-old, were exposed to a single hypoxic episode as described above. […] The passive avoidance test was performed on day 13 after initiation the drug treatment. The apparatus consisted of a lit chamber that can be separated from a dark chamber by a sliding door. At training, a rat is placed in the lit chamber for 30 seconds, then the door is opened. The rat moves to the dark chamber after a short delay - the latency, that is recorded. Upon entry into the dark chamber, the door is shut closed and a 0.3-mA footshock is delivered for 3 seconds by a Grass S-88 stimulator. Retention of the experience is determined after 48 hours by repeating the test and recording the latency to an arbitrary maximum of 300 seconds. Longer latencies are ascribed to retention of memory and improved cognition.

[2] = 50 mg/kg ip one hour prior to hypoxia
[3] = 100 mg/kg ip one hour prior to hypoxia
[4] = dose cell empty (line below 50 mg/kg ip)
[5] = 0.005 µM + NMDA 1mM for 3 hours
[6] = 0.010 µM + NMDA 1mM for 3 hours
[7] = 0.100 µM + NMDA 1mM for 3 hours

SMILES | PERCENT PROTECTION (Male mongolian gerbils; 0.1 mg/kg ip) [%] | PERCENT PROTECTION (Male mongolian gerbils; 1.0 mg/kg ip) [%] | PERCENT PROTECTION (Male mongolian gerbils; 10.0 mg/kg ip) [%] | PROTECTION % OF RESPECTIVE CONTROL (male ICR albino mice; [2]) [% OF RESPECTIVE CONTROL] | PROTECTION % OF RESPECTIVE CONTROL (male ICR albino mice; [3]) [% OF RESPECTIVE CONTROL] | PROTECTION % OF RESPECTIVE CONTROL (male ICR albino mice; [4]) [% OF RESPECTIVE CONTROL] | SURVIVING CELL IN CULTURE [1, 5] [%] | PERCENT PROTECTION ([1]; 0.005 µM + NMDA) [%] | EFFECTIVE PROTECTION ([1]; 0.005 µM + NMDA) [%] | SURVIVING CELL IN CULTURE [1, 6] [%] | PERCENT PROTECTION ([1]; 0.010 µM + NMDA) [%] | EFFECTIVE PROTECTION ([1]; 0.010 µM + NMDA) [%] | SURVIVING CELL IN CULTURE [1, 7] [%] | PERCENT PROTECTION ([1]; 0.100 µM + NMDA) [%] | latency of response, before electroshock (hypoxic rat) [s] | latency of response, 48h after electroshock (hypoxic rat) [s] | further results
CC(=O)N[C@@H]1CCc2ccccc21 [Example 18, (R)-N-Acetyl-1-aminoindan] | 25.0 | 25.0 | 66.7 | 271±193 | 397±244 | 383±233 | 80 | 50 | 71 | 80 | 50 | 71 | 55 | 25 |  |  | TD50 (in vivo; MICE TD50): 75 mg/kg; MICE TD50 (mice; mouse, in vivo, ip): 75 mg/kg; EFFECTIVE PROTECTION ([1]; 0.100 µM + NMDA): 36%; SURVIVING CELL IN CULTURE ([1]; 1.000 µM + NMDA 1mM for 3 hours): 47%; PERCENT PROTECTION ([1]; 1.000 µM + NMDA): 17%; EFFECTIVE PROTECTION ([1]; 1.000 µM + NMDA): 24%; SURVIVING CELL IN CULTURE ([1]; 5.000 µM + NMDA 1mM for 3 hours): 32%; PERCENT PROTECTION ([1]; 5.000 µM + NMDA): 2%; EFFECTIVE PROTECTION ([1]; 5.000 µM + NMDA): 3%
N[C@@H]1CCc2ccccc21 [R-AI, (R)-1-aminoindan] | 25.0 | 25.0 | 25.0 | 358±224 | 395±199 | 411±174 | 80 | 50 | 71 | 30 | 0 | 0 | 28 | -2 | 53 ± 6 | 245 ± 33 | TD50 (in vivo): 71 mg/kg; MICE TD50 (mice; mice, i.p., Table 16): 71 mg/kg
C#CCN(C)[C@H](C)Cc1ccccc1 [deprenyl] |  |  |  |  |  |  |  |  |  |  |  |  |  |  | 53 ± 7 | 153 ± 37 | 
